Results published in patent US12507703B2, “Methods, devices and compositions for preserving human milk” (The Trustees of Princeton University, priority 2023, dated 2025).
Values joined by “and” are separate entries in the source; they are usually repeats but may differ in a detail not shown here. Identical values can stand only once.

test system: lipase; test: Lipase/lipolysis assay (EnzChek Lipase Substrate, quenched BODIPY-fatty acid conjugate) on stored human milk; further: test concentration or dose not given here

| SMILES | Lipase (RFU) |
| --- | --- |
| C=C(C)[C@@H]1CCC2=CCC[C@@H](C)[C@]2(C)C1 [Valencene] | 980.1668 RFU |
| COc1cc(CC(=O)C(=O)O)ccc1O [Vanilpyruvic acid] | 1086.418 RFU |
| NC(=O)CC[C@@H]1NC(=O)[C@H](Cc2ccccc2)NC(=O)[C@H](Cc2ccc(O)cc2)NC(=O)[C@@H](N)CSSC[C@@H](C(=O)N2CCC[C@H]2C(=O)N[C@@H](CCCN=C(N)N)C(=O)NCC(N)=O)NC(=O)[C@H](CC(N)=O)NC1=O [Vasopressin] | 1150.397 RFU |
| COc1ccc(C=O)cc1OC [Veratraldehyde] | 898.3756 RFU and 979.6116 RFU |
| COc1ccc(C(=O)O)cc1OC [Veratric acid] | 944.3491 RFU |
| COC(=O)C1=CO[C@@H](O[C@@H]2O[C@H](CO)[C@@H](O)[C@H](O)[C@H]2O)[C@H]2[C@@H]1C(=O)C[C@@H]2C [Verbenalin] | 1051.385 RFU |
| O=c1cc(-c2ccc(O)cc2)oc2c([C@@H]3O[C@H](CO)[C@@H](O)[C@H](O)[C@H]3O)c(O)c([C@@H]3O[C@H](CO)[C@@H](O)[C@H](O)[C@H]3O)c(O)c12 [Vicenin 2] | 893.9745 RFU |
| O=c1cc(-c2ccc(O)cc2)oc2c([C@@H]3OC[C@@H](O)[C@H](O)[C@H]3O)c(O)c([C@@H]3O[C@H](CO)[C@@H](O)[C@H](O)[C@H]3O)c(O)c12 [Vicenin 3] | 1057.755 RFU |
| O=c1cc(-c2ccc(O)cc2)oc2c([C@@H]3O[C@H](CO)[C@@H](O)[C@H](O)[C@H]3O)c(O)c([C@@H]3OC[C@@H](O)[C@H](O)[C@H]3O)c(O)c12 [Vicenin-1] | 1046.904 RFU |
| C[C@@H]1O[C@@H](O[C@@H]2[C@@H](O)[C@H](O)[C@@H](CO)O[C@H]2c2c(O)cc(O)c3c(=O)cc(-c4ccc(O)cc4)oc23)[C@H](O)[C@H](O)[C@H]1O [Vitexin-2″-O-rhamnoside] | 747.1181 RFU |
| CC1=C(C)C(=O)O[C@@H]([C@](C)(O)[C@H]2CC[C@H]3[C@@H]4[C@@H]5O[C@@H]5[C@@]5(O)CC=CC(=O)[C@]5(C)[C@H]4CC[C@]23C)C1 [Withanolide A] | 840.7696 RFU |
| O=c1ccc2cc3ccoc3c(O)c2o1 [Xanthotoxol] | 1117.591 RFU |
| O=C(O)c1cc(O)c2cccc(O)c2n1 [Xanthurenic acid] | 1023.37 RFU |
| OC1OC[C@@H](O[C@@H]2OC[C@@H](O)[C@H](O)[C@H]2O)[C@H](O)[C@H]1O (stereo partly shown) [Xylobiose] | 862.1511 RFU |
| C[C@H]1CCCC(=O)CCC/C=C/c2cc(O)cc(O)c2C(=O)O1 [Zearalenone] | 758.7174 RFU |
| CC1=C(/C=C/C(C)=C/C=C/C(C)=C/C(=O)O)C(C)(C)CCC1=O [all-trans-4-Oxoretinoic acid] | 984.8749 RFU |
| C/C=C/c1cc(OC)c(OC)cc1OC [alpha-Asarone] | 956.156 RFU |
| COc1c(O)cc2oc3cc(O)c(CC=C(C)C)c(O)c3c(=O)c2c1CC=C(C)C [alpha-Mangostin] | 1061.941 RFU |
| CC(C)=CC(=O)C[C@H](C)c1ccc(C)cc1 [ar-Turmerone] | 1106.99 RFU |
| O=P(O)(O)OC(CO)CO [b-Glycerol Phosphate] | 984.3562 RFU |
| COc1cc2oc3cc(O)c(OC)c(CC=C(C)C)c3c(=O)c2c(O)c1CC=C(C)C [beta-Mangostin] | 828.6091 RFU |
| O=C(O)[C@@H]1C[C@H](O)CN1 [cis-4-Hydroxy-L-proline] | 944.0714 RFU |
| C=C(C)[C@H]1C=C[C@@](C)(O)CC1 [cis-Isolimonenol] | 930.1567 RFU |
| CC/C=C\CC1=C(C)CCC1=O [cis-Jasmone] | 1015.76 RFU |
| O[C@H]1[C@H](O)[C@@H](O)[C@H](O)[C@@H](O)[C@H]1O [i-Inositol] | 1026.636 RFU and 1128.491 RFU |
| COc1cccc(C=O)c1 [m-Anisaldehyde] | 1038.646 RFU |
| Cc1cccc(C=O)c1 [m-Tolualdehyde] | 859.0901 RFU |
| OC[C@@H](O)[C@@H](O)CO [meso-Erythritol] | 838.849 RFU |
